The source of these data is PMC8206089, “Split NanoLuc technology allows quantitation of interactions between PII protein and its receptors with unprecedented sensitivity and reveals transient interactions” (Scientific Reports, 2021).

In assay [1] the target is T1, NAGK-SmBiT in complex with PII-LgBiT (ligand on NAGK) (Synechocystis sp. PCC 6803, UniProt P73326).
T1 construct: gene argB; hexameric NAGK with N-terminal His6, C-terminal 16-aa linker and SmBiT; PII trimer with C-terminal Strep-tag and LgBiT; both from E. coli Lemo21; with Nitrogen regulatory protein P-II
Kind of assay: NanoBiT luminescence, stimulation of PII-NAGK complex formation. In kind it is binding. Conditions: 0-50 mM NAG, 2 mM ATP; 10 pM PII-LgBiT, 5 nM NAGK-SmBiT; pH 7.6, 2 mM MgCl2, 30 °C.

The target in assay [2] is T1, NAGK-SmBiT in complex with PII-LgBiT (ligand on NAGK). Kind of assay: NanoBiT luminescence, Arg titration of PII-NAGK complex. In kind it is binding. The settings on record: 2 mM ATP or 1 mM ATP/1 mM ADP; allosteric; pH 7.6, 2 mM MgCl2, 30 °C.

The structures appear in SMILES notation.

T1 sequence (P73326 whole entry): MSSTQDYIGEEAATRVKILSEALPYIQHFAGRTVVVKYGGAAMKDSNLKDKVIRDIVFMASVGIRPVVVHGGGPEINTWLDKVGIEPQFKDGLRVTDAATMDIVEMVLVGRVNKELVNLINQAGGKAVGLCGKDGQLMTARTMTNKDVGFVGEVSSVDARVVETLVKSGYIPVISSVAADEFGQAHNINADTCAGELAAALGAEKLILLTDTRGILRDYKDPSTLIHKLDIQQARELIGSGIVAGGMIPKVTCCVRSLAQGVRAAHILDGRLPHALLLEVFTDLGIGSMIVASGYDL
T1 sequence (Q55247 whole entry partner): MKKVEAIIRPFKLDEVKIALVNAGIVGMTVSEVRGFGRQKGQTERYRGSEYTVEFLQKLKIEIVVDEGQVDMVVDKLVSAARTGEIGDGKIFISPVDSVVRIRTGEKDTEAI

As for `CC(=O)N[C@@H](CCC(=O)O)C(=O)O` [NAG], the “NanoBiT luminescence, stimulation of PII-NAGK complex formation” value in assay [1] is listed as “increasing NAG concentrations caused a dramatic increase in PII-NAGK interaction”.
As to `N=C(N)NCCC[C@H](N)C(=O)O` [Arg], the “NanoBiT luminescence, Arg titration of PII-NAGK complex” value in assay [2] was “arginine was titrated to PII-LgBiT-NAGK-SmBiT complexes and luminescence was recorded”.
